# In the kinase profiling compilation of Christmann-Franck et al. (2016):
# Where “and” joins values, the source holds several entries; their conditions need not be identical. Identical values can stand only once.
# Experiments:
# Assay in all cases: radiometric filter-binding kinase assay, Kinase HotSpot
# Details in all cases: compound 0.5 µM; ATP 10 µM
# [1] = molecular target: FYN (human) (UniProt P06241)
# [2] = molecular target: DDR2 (human) (UniProt Q16832)
# [3] = molecular target: GSK3B (human) (UniProt P49841)
# [4] = molecular target: EPHB3 (human) (UniProt P54753)
# [5] = molecular target: EPHB2 (human) (UniProt P29323)
# [6] = molecular target: MAP3K11 (human) (UniProt Q16584)
# [7] = molecular target: MAP2K2 (human) (UniProt P36507)
# [8] = molecular target: AKT1 (human) (UniProt P31749)
# [9] = molecular target: BRSK2 (human) (UniProt Q8IWQ3)
# [10] = molecular target: ALK (human) (UniProt Q9UM73)
# ALK (human), sequence (Q9UM73 whole entry, looked up): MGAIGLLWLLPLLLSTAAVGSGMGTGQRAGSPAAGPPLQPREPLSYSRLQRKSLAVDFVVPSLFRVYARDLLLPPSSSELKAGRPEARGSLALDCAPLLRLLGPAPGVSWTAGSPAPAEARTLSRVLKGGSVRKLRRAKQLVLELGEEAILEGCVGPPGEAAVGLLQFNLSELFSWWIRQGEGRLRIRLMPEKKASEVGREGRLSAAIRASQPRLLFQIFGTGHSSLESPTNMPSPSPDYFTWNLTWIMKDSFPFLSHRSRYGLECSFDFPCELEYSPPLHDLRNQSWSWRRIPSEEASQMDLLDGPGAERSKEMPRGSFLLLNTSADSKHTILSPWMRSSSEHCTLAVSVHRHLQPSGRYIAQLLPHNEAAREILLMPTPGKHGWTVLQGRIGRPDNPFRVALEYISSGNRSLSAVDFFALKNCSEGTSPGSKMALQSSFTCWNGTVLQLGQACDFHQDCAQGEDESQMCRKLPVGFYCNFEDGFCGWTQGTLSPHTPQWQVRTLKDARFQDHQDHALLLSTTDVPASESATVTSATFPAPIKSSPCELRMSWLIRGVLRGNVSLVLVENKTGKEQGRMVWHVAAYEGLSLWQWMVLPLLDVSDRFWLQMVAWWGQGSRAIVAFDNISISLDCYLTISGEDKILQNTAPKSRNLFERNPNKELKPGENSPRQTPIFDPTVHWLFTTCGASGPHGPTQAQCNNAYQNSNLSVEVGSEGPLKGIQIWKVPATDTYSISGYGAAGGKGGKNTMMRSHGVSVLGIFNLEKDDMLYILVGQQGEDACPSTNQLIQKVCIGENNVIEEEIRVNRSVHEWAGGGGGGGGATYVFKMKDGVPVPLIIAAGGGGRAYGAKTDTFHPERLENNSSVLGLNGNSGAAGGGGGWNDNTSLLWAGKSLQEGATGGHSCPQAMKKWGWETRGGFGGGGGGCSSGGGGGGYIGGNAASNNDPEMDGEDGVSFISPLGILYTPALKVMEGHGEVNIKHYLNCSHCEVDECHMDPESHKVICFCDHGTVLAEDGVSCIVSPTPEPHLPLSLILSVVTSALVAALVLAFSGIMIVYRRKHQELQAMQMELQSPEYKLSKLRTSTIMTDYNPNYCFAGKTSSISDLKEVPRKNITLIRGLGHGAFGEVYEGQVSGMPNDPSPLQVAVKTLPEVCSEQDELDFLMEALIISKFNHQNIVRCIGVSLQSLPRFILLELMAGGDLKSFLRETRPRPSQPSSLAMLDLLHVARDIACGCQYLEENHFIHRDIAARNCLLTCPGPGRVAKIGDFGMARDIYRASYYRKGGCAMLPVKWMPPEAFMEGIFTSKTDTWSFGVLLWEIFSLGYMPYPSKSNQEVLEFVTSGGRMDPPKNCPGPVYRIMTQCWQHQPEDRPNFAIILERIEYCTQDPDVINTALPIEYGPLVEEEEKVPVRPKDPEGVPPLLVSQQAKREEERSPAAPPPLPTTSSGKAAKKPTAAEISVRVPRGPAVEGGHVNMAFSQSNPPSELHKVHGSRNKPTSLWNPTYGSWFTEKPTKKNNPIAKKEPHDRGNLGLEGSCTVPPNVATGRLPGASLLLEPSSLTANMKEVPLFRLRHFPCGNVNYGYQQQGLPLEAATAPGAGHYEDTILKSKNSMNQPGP
# [11] = molecular target: LRRK2 (human) (UniProt Q5S007)
# [12] = molecular target: CSNK1A1 (human) (UniProt P48729)
# [13] = molecular target: MARK4 (human) (UniProt Q96L34)
# [14] = molecular target: MAPK14 (human) (UniProt Q16539)
# [15] = molecular target: FGFR4 (human) (UniProt P22455)
# [16] = molecular target: PRKD3 (human) (UniProt O94806)
# [17] = molecular target: CDK3 CCNE1 (human) (UniProt Q00526+P24864)
# [18] = molecular target: PASK (human) (UniProt Q96RG2)
# [19] = molecular target: BLK (human) (UniProt P51451)
# [20] = molecular target: ACVRL1 (human) (UniProt P37023)
# [21] = molecular target: LYN (human) (UniProt P07948)
# LYN (human), sequence (P07948 whole entry, looked up): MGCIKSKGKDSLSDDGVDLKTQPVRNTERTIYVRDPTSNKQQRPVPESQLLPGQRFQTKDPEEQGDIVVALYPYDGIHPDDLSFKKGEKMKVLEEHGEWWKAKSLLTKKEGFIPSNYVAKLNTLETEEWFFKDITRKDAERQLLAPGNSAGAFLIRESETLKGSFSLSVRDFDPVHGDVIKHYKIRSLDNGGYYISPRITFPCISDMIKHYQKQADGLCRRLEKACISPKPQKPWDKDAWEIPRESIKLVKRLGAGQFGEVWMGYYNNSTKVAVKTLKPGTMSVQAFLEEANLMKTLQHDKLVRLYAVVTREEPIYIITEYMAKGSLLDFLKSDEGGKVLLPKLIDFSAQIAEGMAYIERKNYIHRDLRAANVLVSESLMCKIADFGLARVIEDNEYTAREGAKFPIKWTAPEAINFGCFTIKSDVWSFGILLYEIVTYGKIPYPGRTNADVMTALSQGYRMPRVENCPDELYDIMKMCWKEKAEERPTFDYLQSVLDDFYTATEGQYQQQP
# [22] = molecular target: PRKG2 (human) (UniProt Q13237)
# [23] = molecular target: PDGFRA (human) (UniProt P16234)
# [24] = molecular target: RPS6KA5 KD2 (human) (UniProt O75582)
# [25] = molecular target: CDK6 CCND3 (human) (UniProt P30281+Q00534)
# CDK6 CCND3 (human), sequence (P30281 whole entry, looked up): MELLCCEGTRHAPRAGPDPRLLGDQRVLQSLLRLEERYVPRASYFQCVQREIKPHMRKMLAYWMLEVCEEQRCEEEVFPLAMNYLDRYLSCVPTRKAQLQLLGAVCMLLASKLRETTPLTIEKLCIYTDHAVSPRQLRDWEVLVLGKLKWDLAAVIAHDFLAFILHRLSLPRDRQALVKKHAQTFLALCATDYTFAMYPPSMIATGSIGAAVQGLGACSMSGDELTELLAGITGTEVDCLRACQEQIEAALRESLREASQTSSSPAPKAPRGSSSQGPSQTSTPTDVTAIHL
# CDK6 CCND3 (human), sequence (Q00534 whole entry, looked up): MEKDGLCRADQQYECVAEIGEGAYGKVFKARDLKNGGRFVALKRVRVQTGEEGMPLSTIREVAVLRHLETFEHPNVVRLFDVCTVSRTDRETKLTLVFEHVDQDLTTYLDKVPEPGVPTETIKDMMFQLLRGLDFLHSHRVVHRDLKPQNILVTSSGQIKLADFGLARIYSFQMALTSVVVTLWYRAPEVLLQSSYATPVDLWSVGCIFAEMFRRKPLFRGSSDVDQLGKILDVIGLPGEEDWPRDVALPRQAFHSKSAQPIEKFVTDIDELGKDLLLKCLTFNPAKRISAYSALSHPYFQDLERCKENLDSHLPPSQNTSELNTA
# [26] = molecular target: PDPK1 (human) (UniProt O15530)
# [27] = molecular target: MAPKAPK5 (human) (UniProt Q8IW41)
# [28] = molecular target: IRAK1 (human) (UniProt P51617)
# [29] = molecular target: BRSK1 (human) (UniProt Q8TDC3)
# [30] = molecular target: NTRK1 (human) (UniProt P04629)
# [31] = molecular target: CDC42BPA (human) (UniProt Q5VT25)
# [32] = molecular target: NEK1 (human) (UniProt Q96PY6)
# [33] = molecular target: LTK (human) (UniProt P29376)
# [34] = molecular target: PKN1 (human) (UniProt Q16512)
# [35] = molecular target: WNK3 (human) (UniProt Q9BYP7)
# WNK3 (human), sequence (Q9BYP7 whole entry, looked up): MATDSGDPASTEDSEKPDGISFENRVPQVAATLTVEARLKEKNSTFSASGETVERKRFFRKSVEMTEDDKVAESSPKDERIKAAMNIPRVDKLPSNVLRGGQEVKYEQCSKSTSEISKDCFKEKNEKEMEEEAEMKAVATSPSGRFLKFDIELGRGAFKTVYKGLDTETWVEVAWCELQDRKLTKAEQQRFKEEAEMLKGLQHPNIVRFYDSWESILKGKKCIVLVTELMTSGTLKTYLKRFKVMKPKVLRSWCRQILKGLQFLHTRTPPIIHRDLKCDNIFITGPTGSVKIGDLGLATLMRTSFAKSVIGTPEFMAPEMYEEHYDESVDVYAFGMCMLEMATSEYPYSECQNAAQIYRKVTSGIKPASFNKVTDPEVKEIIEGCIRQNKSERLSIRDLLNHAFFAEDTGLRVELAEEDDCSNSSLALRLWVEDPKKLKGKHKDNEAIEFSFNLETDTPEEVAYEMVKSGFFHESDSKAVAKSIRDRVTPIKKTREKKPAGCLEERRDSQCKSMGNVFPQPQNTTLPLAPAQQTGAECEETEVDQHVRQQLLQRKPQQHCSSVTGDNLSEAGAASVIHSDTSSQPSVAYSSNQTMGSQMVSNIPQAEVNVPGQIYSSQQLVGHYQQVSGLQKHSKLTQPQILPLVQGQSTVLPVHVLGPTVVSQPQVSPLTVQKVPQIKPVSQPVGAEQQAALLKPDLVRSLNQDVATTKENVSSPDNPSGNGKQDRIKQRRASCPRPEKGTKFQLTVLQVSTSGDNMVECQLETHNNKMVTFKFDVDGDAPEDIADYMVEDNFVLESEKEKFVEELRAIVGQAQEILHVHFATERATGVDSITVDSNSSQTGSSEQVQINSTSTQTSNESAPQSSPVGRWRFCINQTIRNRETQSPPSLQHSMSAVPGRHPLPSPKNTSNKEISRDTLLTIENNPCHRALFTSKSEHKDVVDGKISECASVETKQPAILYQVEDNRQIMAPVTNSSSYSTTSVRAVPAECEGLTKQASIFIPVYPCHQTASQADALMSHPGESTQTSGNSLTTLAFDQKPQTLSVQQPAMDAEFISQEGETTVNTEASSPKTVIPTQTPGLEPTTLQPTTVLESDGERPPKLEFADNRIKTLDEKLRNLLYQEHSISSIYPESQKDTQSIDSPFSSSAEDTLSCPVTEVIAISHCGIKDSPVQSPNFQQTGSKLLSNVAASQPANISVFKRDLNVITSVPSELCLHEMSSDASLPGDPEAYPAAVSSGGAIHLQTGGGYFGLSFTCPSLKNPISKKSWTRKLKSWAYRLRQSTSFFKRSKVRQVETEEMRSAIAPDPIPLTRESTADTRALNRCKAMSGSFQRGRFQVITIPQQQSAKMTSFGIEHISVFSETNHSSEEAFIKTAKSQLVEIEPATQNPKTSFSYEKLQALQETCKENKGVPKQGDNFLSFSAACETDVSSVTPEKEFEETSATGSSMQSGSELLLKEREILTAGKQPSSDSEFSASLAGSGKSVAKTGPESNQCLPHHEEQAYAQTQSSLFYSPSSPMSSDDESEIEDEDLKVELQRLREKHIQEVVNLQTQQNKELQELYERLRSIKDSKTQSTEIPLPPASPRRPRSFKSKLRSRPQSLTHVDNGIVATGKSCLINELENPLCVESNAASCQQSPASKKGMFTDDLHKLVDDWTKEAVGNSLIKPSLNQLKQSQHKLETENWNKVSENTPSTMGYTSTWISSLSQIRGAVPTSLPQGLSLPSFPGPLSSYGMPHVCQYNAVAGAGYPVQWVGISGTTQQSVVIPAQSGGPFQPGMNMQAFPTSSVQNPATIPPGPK
# [36] = molecular target: PIM1 (human) (UniProt P11309)
# PIM1 (human), sequence (P11309 whole entry, looked up): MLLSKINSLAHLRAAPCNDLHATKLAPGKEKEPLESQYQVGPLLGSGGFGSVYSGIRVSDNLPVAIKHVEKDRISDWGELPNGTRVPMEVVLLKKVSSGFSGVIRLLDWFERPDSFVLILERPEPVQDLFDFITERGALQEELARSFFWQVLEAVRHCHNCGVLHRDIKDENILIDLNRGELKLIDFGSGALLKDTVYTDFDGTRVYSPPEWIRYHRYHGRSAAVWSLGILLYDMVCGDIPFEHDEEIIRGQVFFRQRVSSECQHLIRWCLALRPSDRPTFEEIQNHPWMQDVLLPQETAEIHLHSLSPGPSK
# [37] = molecular target: DYRK1A (human) (UniProt Q13627)
# [38] = molecular target: MAP4K4 (human) (UniProt O95819)
# [39] = molecular target: MAP3K10 (human) (UniProt Q02779)
# [40] = molecular target: RPS6KB1 (human) (UniProt P23443)
# [41] = molecular target: STK3 (human) (UniProt Q13188)
# [42] = molecular target: EPHA1 (human) (UniProt P21709)
structure (smiles),measurement,setting,value
Nc1nnc2[nH]c3ccccc3nc1-2,residual activity,[1],96.1%
same,residual activity,[2],94.6%
same,residual activity,[3],99.7%
same,residual activity,[4],90.3%
same,residual activity,[5],103%
same,residual activity,[6],96.3%
same,residual activity,[7],104%
same,residual activity,[8],106%
same,residual activity,[9],96.5%
same,residual activity,[10],96.7%
same,residual activity,[11],90.5%
same,residual activity,[12],101%
same,residual activity,[13],99.8%
same,residual activity,[14],96.6%
same,residual activity,[15],94.9%
same,residual activity,[16],87.3%
same,residual activity,[17],93.1%
same,residual activity,[18],93.7%
same,residual activity,[19],96.6%
same,residual activity,[20],105%
same,residual activity,[21],108% and 97%
same,residual activity,[22],66.7%
same,residual activity,[23],103%
same,residual activity,[24],92.4%
same,residual activity,[25],105%
same,residual activity,[26],96.8%
same,residual activity,[27],82.7%
same,residual activity,[28],88.9%
same,residual activity,[29],91.5%
same,residual activity,[30],88.3%
same,residual activity,[31],95.4%
same,residual activity,[32],91.7%
same,residual activity,[33],89.4%
same,residual activity,[34],92%
same,residual activity,[35],98%
same,residual activity,[36],94%
same,residual activity,[37],95.1%
same,residual activity,[38],76.2%
same,residual activity,[39],93.1%
same,residual activity,[40],99.8%
same,residual activity,[41],88.9%
same,residual activity,[42],100%
COc1cc2ncnc(N3CCN(C(=O)Nc4ccc(Oc5ccccc5)cc4)CC3)c2cc1OC,residual activity,[1],112%
same,residual activity,[2],95.1%
same,residual activity,[3],99%
same,residual activity,[4],89.6%
same,residual activity,[5],98.2%
same,residual activity,[6],97%
same,residual activity,[7],99.3%
same,residual activity,[8],93.7%
same,residual activity,[9],94.1%
same,residual activity,[10],101%
same,residual activity,[11],98.3%
same,residual activity,[12],108%
same,residual activity,[13],76.5%
same,residual activity,[14],81%
same,residual activity,[15],99.7%
same,residual activity,[16],97.5%
same,residual activity,[17],82%
same,residual activity,[18],97.7%
same,residual activity,[19],113%
same,residual activity,[20],93%
same,residual activity,[21],102% and 97.8%
same,residual activity,[22],97.5%
same,residual activity,[23],16.4%
same,residual activity,[24],96.4%
same,residual activity,[25],100%
same,residual activity,[26],92.3%
same,residual activity,[27],118%
same,residual activity,[28],116%
same,residual activity,[29],86.4%
same,residual activity,[30],90.6%
same,residual activity,[31],95.4%
same,residual activity,[32],92.6%
same,residual activity,[33],89.8%
same,residual activity,[34],103%
same,residual activity,[35],101%
same,residual activity,[36],102%
same,residual activity,[37],97.9%
same,residual activity,[38],88.4%
same,residual activity,[39],92%
same,residual activity,[40],89.4%
same,residual activity,[41],93.3%
same,residual activity,[42],102%
